Measurements reported in patent publication US8871252B2, “pH-responsive liposome” (Nanotheta Co, Ltd., priority 2009, dated 2014).

Columns and labels:
[1] = pH change behavior of citric acid-loaded liposomes added to aqueous sodium hydroxide; assay type: physicochemical; details: upon addition to 4 mL of 300 μM aqueous sodium hydroxide (pH 10.5)
Experimental: Each lipid mixture (20 mg) was hydrated in 20 mM citric acid (pH 2.2), and the dispersion was subjected to extrusion (final pore size: 0.22 μm) to prepare liposomes having a particle size of 200 to 300 nm. When required, pH change behavior was measured with a pH meter immediately after addition of the liposome dispersion ([lipid]=55 mg/mL, 10 μL) or citric acid (20 mM, 10 μL) to 4 mL of 300 μM aqueous sodium hydroxide (pH 10.5).

[2] = Release behavior of citric acid from liposomes in a weakly basic environment (pH meter); assay type: physicochemical; details: after pH of the mixture changed to 7.5 to 8.5 with sodium hydroxide
Experimental: The release behavior of citric acid from liposomes was studied in a weakly basic environment. First, to an aqueous liquid of citric acid having liposomes dispersed therein ([lipid]=250 μM, 4 mL) or an aqueous solution of citric acid (30 mM, pH 2.2, 4 mL), 2M aqueous sodium hydroxide (170 μL) was added to adjust the pH of the mixture to 6.5. Then, 300 mM aqueous sodium hydroxide (60 μL) was added to change the pH of the mixture to 7.5 to 8.5. The subsequent pH change behavior was monitored over time with a pH meter.

Structure (SMILES): O=C(O)CC(O)(CC(=O)O)C(=O)O [citric acid]
- pH reached (sudden decrease) [1]: 7.0
- nearly constant pH reached [2]: ~7
